Tests used:
Type in all cases: in vivo
[1] = system: adult cat fleas (Ctenocephalides felis); assay: Ctenocephalides felis in-vitro contact test, adult cat flea; details: application rate 5 μg/cm^2 (=500 g/ha), after 48 hours, read-out: activity (efficacy: fleas dead or moribund)
Outline: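 Efficacy, as % of fleas dead or moribund, was read 48 h after 5-10 adult cat fleas were confined in glass tubes whose walls carried dried compound film (900 ppm, […]). Fleas failing to escape upward from a 45-50° C plate within 5 min counted as dead or moribund.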

[2] = system: adult engorged female ticks (Rhipicephalus microplus); assay: Rhipicephalus (Boophilus) microplus injection test; details: 168 h, egg deposition after 7 days, read-out: activity (efficacy: infertile eggs); for pest or weed control at 4 pg: application rate 4 pg/animal; for pest or weed control at 0.02 mg: application rate 20 μg/animal
Outline: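 Compound in DMSO (10 mg per 0.5 mL, then diluted with DMSO to test concentration); 1 μL injected into the abdomen of each of five engorged females, then held in a climate chamber. Fertile egg deposition checked at 7 days; efficacy 100% = all eggs infertile, 0% = all fertile.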

[3] = system: cattle ticks (Rhipicephalus microplus) strain Parkhurst, SP-resistant; assay: Rhipicephalus (Boophilus) microplus dip test; details: 168 h, application rate 100 ppm, egg deposition after 7 days, read-out: activity (efficacy: infertile eggs)
Procedure: Rhipicephalus (Boophilus) microplus—Din Test
Test animal: cattle ticks (Rhipicephalus microplus) strain Parkhurst, SP-resistant
Solvent: dimethyl sulfoxide
To produce a suitable preparation of active compound, 10 mg of active compound are dissolved in 0.5 mL solvent, and the concentrate is diluted with water to the desired concentration.
This compound solution is pipetted into tubes. 8-10 engorged, adult, female cattle ticks (Rhipicephalus microplus) are placed in perforated tubes. These tubes are immersed in the aqueous compound solution until the ticks are completely moistened. After the liquid has drained off, the ticks are transferred to a filter paper in a plastic tray and stored in a climate chamber.
After 7 days egg deposition of fertile eggs is monitored. Eggs where fertility is not visible are stored in a climate chamber till hatching after about 42 days. An efficacy of 100% means all eggs are infertile; 0% means all eggs are fertile.

[4] = system: larvae of the southern green stink bug (Nezara viridula); assay: Nezara viridula spray test; details: 96 h, after 4 days; for mortality at 100 g/ha: application rate 100 g/ha; for mortality at 500 g/ha: application rate 500 g/ha
Outline: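 Larva-infested barley (Hordeum vulgare) plants received a spray of test solution prepared from an acetone/DMF concentrate diluted in emulsifier-containing water (1000 ppm). Percent kill read 4 days later; 0% means no stink bugs dead.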

[5] = system: Anopheles funestus strain FUMOZ-R; assay: Anopheles funestus test (ANPHFU surface treatment & contact assay); details: 24 hours after contact, read-out: efficacy (mortality); for mortality at 4 mg/m2: surface concentration 4 mg/m^2, exposure 30 minutes; for mortality at 20 mg/m2: surface concentration 20 mg/m^2, exposure 30 minutes
Outline: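 Compound dissolved in acetone at 2 mg/ml with 2000 ppm RME, pipetted onto glazed tile; acetone evaporated. Adult FUMOZ-R mosquitoes exposed to dried surface for 30 min. Percent mortality scored 24 h after contact.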

[6] = system: Culex quinquefasciatus strain P00; assay: Culex quinquefasciatus test (CULXFA surface treatment & contact assay); details: 24 hours after contact, read-out: efficacy (mortality); for mortality at 4 mg/m2: surface concentration 4 mg/m^2, exposure 30 minutes; for mortality at 20 mg/m2: surface concentration 20 mg/m^2, exposure 30 minutes
Outline: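 Compound in acetone (2 mg/ml) with 2000 ppm rapeseed oil methyl ester, dried onto glazed tile. Adult mosquitoes exposed to the treated surface for 30 min. Percent mortality scored 24 h after contact.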

[7] = system: adult brown dog ticks (Rhipicephalus sanguineus); assay: Rhipicephalus sanguineus in-vitro contact test, adult brown dog ticks; details: after 48 hours, read-out: activity (efficacy: ticks dead or moribund); for pest or weed control at 100 g/ha: application rate 1 pg/cm^2 (=100 g/ha); for pest or weed control at 5 µg/cm2, 500 g/ha: application rate 5 μg/cm^2 (=500 g/ha)
Outline: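 Glass tubes are coated with compound dissolved in acetone, a 900 ppm solution yielding 5 μg/cm^2 on the inner surface. Adult ticks (5-10 per tube) are kept on the dry film at room temperature for 48 h, then those unable to escape 45-50° C heat are counted as dead or moribund.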

With `C[C@H](NC(=O)c1cc(Cl)cc(S(C)(=O)=O)c1)c1nc(C2CC2)nn1-c1ccc(C#N)cn1` [I-4] the pest or weed control at 5 µg/cm2 [1] was 90%, the pest or weed control at 4 pg [2] was 100% and the pest or weed control at 0.02 mg [2] was 100%. For the same compound, the pest or weed control at 100 ppm [3] was 100%, the mortality at 100 g/ha [4] was 100% and the mortality at 500 g/ha [4] was 100%.

`C[C@H](NC(=O)c1cc(C(F)(F)F)cc(S(C)(=O)=O)c1)c1ncnn1-c1ncccn1` [II-13] was tested, and the mortality at 4 mg/m2 [5] was 80 to 100%, the pest or weed control at 5 µg/cm2 [1] was 100% and the pest or weed control at 4 pg [2] was 100%. The pest or weed control at 0.02 mg [2] was 100%, the pest or weed control at 100 ppm [3] was 100% and the mortality at 4 mg/m2 [6] was 80 to 100%. For the same compound, the mortality at 100 g/ha [4] was 100% and the mortality at 500 g/ha [4] was 100%.

`C[C@H](NC(=O)c1cc(C2CC2)cc(C(F)(F)F)c1)c1ncnn1-c1ccc(Cl)cn1` [II-27] gave a mortality at 4 mg/m2 [5] of 80 to 100%, a pest or weed control at 5 µg/cm2 [1] of 100% and a pest or weed control at 4 pg [2] of 100%. For the same compound, the pest or weed control at 0.02 mg [2] was 100%, the mortality at 4 mg/m2 [6] was 80 to 100% and the mortality at 20 mg/m2 [6] was 80 to 100%. The mortality at 100 g/ha [4] was 100%, the mortality at 500 g/ha [4] was 100% and the pest or weed control at 100 g/ha [7] was 100%. It also gave a pest or weed control at 5 µg/cm2, 500 g/ha [7] of 100%.

`C[C@H](NC(=O)c1cc(Cl)cc(S(=O)(=O)C(F)F)c1)c1ncnn1-c1ncccn1` [II-34] was tested, and the mortality at 4 mg/m2 [5] was 80 to 100%, the mortality at 20 mg/m2 [5] was 80 to 100% and the pest or weed control at 5 µg/cm2 [1] was 100%. It also gave a pest or weed control at 4 pg [2] of 100%, a pest or weed control at 0.02 mg [2] of 100% and a mortality at 4 mg/m2 [6] of 80 to 100%. It also gave a mortality at 20 mg/m2 [6] of 80 to 100%, a mortality at 100 g/ha [4] of 100% and a mortality at 500 g/ha [4] of 100%. For the same compound, the pest or weed control at 100 g/ha [7] was 100% and the pest or weed control at 5 µg/cm2, 500 g/ha [7] was 100%.

For `Cc1nc([C@H](C)NC(=O)c2cc(OC(F)(F)F)cc(C3CC3)c2)n(-c2ccc(C#N)cn2)n1` [II-39], the pest or weed control at 5 µg/cm2 [1] was 100%, the pest or weed control at 4 pg [2] was 100% and the pest or weed control at 0.02 mg [2] was 100%. It also gave a pest or weed control at 100 ppm [3] of 100%, a mortality at 20 mg/m2 [6] of 80 to 100% and a pest or weed control at 100 g/ha [7] of 100%. The pest or weed control at 5 µg/cm2, 500 g/ha [7] was 100%.

For `C[C@H](NC(=O)c1cc(Cl)cc(S(C)(=O)=O)c1)c1ncnn1-c1ncc(OC(F)F)cn1` [II-42], the mortality at 4 mg/m2 [5] was 80 to 100%, the mortality at 20 mg/m2 [5] was 80 to 100% and the pest or weed control at 5 µg/cm2 [1] was 100%. It also gave a pest or weed control at 4 pg [2] of 100%, a pest or weed control at 0.02 mg [2] of 100% and a pest or weed control at 100 ppm [3] of 100%. It also gave a mortality at 4 mg/m2 [6] of 80 to 100%, a mortality at 20 mg/m2 [6] of 80 to 100% and a mortality at 100 g/ha [4] of 100%. For the same compound, the pest or weed control at 100 g/ha [7] was 100% and the pest or weed control at 5 µg/cm2, 500 g/ha [7] was 100%.

Compound `C[C@H](NC(=O)c1cc(C(F)(F)F)cc(C2(C#N)CC2)c1)c1ncnn1-c1ccc(C#N)cn1` [II-47] has a mortality at 4 mg/m2 [5] of 80 to 100%, a mortality at 20 mg/m2 [5] of 80 to 100% and a pest or weed control at 5 µg/cm2 [1] of 100%. For the same compound, the pest or weed control at 4 pg [2] was 100%, the pest or weed control at 0.02 mg [2] was 100% and the pest or weed control at 100 ppm [3] was 100%. For the same compound, the mortality at 100 g/ha [4] was 100%, the pest or weed control at 100 g/ha [7] was 100% and the pest or weed control at 5 µg/cm2, 500 g/ha [7] was 100%.

For `C[C@H](NC(=O)c1cc(C(F)(F)F)cc(C2(C#N)CC2)c1)c1ncnn1-c1ccc(Cl)cn1` [II-48], the mortality at 4 mg/m2 [5] was 80 to 100%, the mortality at 20 mg/m2 [5] was 80 to 100% and the pest or weed control at 5 µg/cm2 [1] was 90%. The pest or weed control at 4 pg [2] was 100%, the pest or weed control at 0.02 mg [2] was 100% and the pest or weed control at 100 ppm [3] was 100%. For the same compound, the mortality at 100 g/ha [4] was 100%, the pest or weed control at 100 g/ha [7] was 100% and the pest or weed control at 5 µg/cm2, 500 g/ha [7] was 100%.

`Cc1nc([C@H](C)NC(=O)c2cc(C(F)(F)F)cc(C3(C#N)CC3)c2)n(-c2ccc(C#N)cn2)n1` [II-49] gave a mortality at 20 mg/m2 [5] of 80 to 100%, a pest or weed control at 5 µg/cm2 [1] of 100% and a pest or weed control at 4 pg [2] of 100%. For the same compound, the pest or weed control at 0.02 mg [2] was 100%, the pest or weed control at 100 ppm [3] was 100% and the mortality at 100 g/ha [4] was 100%. For the same compound, the pest or weed control at 100 g/ha [7] was 100% and the pest or weed control at 5 µg/cm2, 500 g/ha [7] was 100%.

Source: patent US20260206761A1, “HETEROARYL-TRIAZOLE COMPOUNDS AS PESTICIDES” (Bayer Aktiengesellschaft, priority 2019, published 2026)
